Source: article PMC7470070, “Discovery of N-(1-(3-fluorobenzoyl)-1H-indol-5-yl)pyrazine-2-carboxamide: a novel, selective, and competitive indole-based lead inhibitor for human monoamine oxidase B” (Journal of Enzyme Inhibition and Medicinal Chemistry, 2020)
“Also recorded” adds a separate entry of the source. Where two headings read alike, the source gives them in different places.

Tests used:
[1] = target: T1, Human recombinant MAO-B (hMAO-B) (Homo sapiens, UniProt P27338); assay: Monoamine oxidase enzyme assay (Amplex Red), MAO-B; type: biochemical; conditions: for inhibition at 10 µM: read-out: Inhibition percent of MAO-B; for IC50: as given in abstract; for SI (selectivity index), IC50 (MAO-A)/IC50 (MAO-B): selectivity for the MAO-B isoform
T1 construct: purchased Sigma-Aldrich (St. Louis, MO); host or cells: insect cells
T1 sequence (P27338 1-520): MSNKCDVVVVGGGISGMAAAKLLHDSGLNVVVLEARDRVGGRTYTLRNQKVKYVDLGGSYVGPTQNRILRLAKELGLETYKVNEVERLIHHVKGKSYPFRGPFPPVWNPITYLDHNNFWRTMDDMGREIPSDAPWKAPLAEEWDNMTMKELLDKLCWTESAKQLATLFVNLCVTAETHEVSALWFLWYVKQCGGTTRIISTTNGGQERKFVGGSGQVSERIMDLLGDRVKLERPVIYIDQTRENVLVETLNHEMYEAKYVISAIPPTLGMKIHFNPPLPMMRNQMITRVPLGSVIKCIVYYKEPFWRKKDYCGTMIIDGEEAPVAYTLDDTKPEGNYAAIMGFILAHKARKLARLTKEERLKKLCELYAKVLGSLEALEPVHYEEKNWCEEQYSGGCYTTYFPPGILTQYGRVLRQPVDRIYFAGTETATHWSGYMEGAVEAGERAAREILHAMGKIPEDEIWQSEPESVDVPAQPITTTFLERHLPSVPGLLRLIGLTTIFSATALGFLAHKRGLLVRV
Protocol: (§1) The inhibitory activity of MAO-A, B enzyme of the compounds was evaluated based on previously described method. The MAO activity was measured in relative fluorescence units (RFUs) evoked by peroxidase-catalyzed oxidation of Amplex Red® to resorufin, in which H2O2 generated by MAO reaction was used as the electron donor. Human recombinant MAO-A (hMAO-A) and MAO-B (hMAO-B) enzyme expressed in insect cells were obtained from Sigma-Aldrich (St. Louis, MO). The 2 μL of test compound in DMSO (final concentration: 1 nM to 10 μM) was treated with 98 μL of hMAO enzyme solution in 50 mM sodium phosphate buffer (pH 7.4, final protein amounts: ∼1.25 μg protein/well for MAO-A and ∼2.5 μg protein/well for MAO-B) on 96-well black plate and incubated for 15 min at 37 °C. Then, 100 μL of reaction working solution which is mixed solution of 400 μM Amplex Red® (Cayman, Ann Arbor, MI, final concentration: 200 μM), 2 U/mL horseradish peroxidase (Sigma-Aldrich, St. Louis, MO, final concentration: 1 U/mL) and 2 mM substrate (p-tyramine for MAO-A, benzylamine for MAO-B, Sigma-Aldrich, St. Louis, MO, final concentration: 1 mM) in 50 mM sodium phosphate buffer (pH 7.4) were added and incubated for 20 min at 37 °C in the dark. The fluorescent intensity was quantified using a microplate reader (SpectraMax®i3, Molecular Devices, Sunnyvale, CA) with an excitation at 545 nm and an emission at 590 nm. The 50% inhibitory concentrations (IC50) of compounds were determined as the mean ± SEM in triplicate from the dose–response inhibition curves using SigmaPlot® 13.0 (Palo Alto, CA).
The target compounds 4a−l were biologically evaluated for their potential inhibitory activities over human MAO-B recombinant enzyme. The enzyme inhibition assay of the tested compounds was conducted using Amplex® Red reagent technology which offers quantitative enzyme activity sensitive detection with extended dynamic range compared to classic colorimetric oxidase assays in addition to its advantage of the fluorescence emission outside the range of compound autofluorescence (if any). Since Amplex® Red reagent is a colourless substrate able to react with H2O2 with a 1:1 stoichiometry to yield highly fluorescent resorufin, the elicited inhibitory activities of the tested compounds over MAO-B were evaluated via spectrophotometrical measurement and the fluorescence rate of the resorufin dye formation was detected. As mentioned previously, all the target compounds were designed to incorporate the same amide moiety in VI and VII at position 5 of the indole scaffold connecting one of three different heteroaromatic cycles with the indole core which is substituted with either aromatic or aliphatic moiety. […] In addition, we noticed that the benzyl and benzoyl moieties, bearing the electron-withdrawing 3- or 4-fluoro groups in 4a−f, exerted better inhibition than the pyridylmethyl substituent (4g−i). […] It is also noteworthy to mention that the three different heteroaryl cycles incorporated in our design (pyridazine, pyrazine, and pyridine) were represented in each of the last three compounds.
The inhibitory potencies (IC50 values) of compounds producing inhibition of MAO-B activity by more than 50% were determined using five doses assay with 10, 1, 0.1, 0.01, and 0.001 μM concentrations of the tested compounds. Consequently, analogues 4b and 4e were further evaluated to determine their IC50 over MAO-B in triplicate from the dose response inhibition curves using Sigma-Plot software version 13.0 as indicated in Figure 3.

[2] = test system: human MAO-B; set-up: method as in PMID 24955776; conditions: cited from earlier work
[3] = test system: MAO-A; set-up: method as in PMID 24955776; conditions: cited from earlier work
[4] = target: T2, Human recombinant MAO-A (hMAO-A) (Homo sapiens, UniProt P21397); assay: Monoamine oxidase enzyme assay (Amplex Red), MAO-A selectivity assay; type: biochemical; conditions: for inhibition at 100 µM: single dose of 100 µM of compound
T2 construct: purchased Sigma-Aldrich (St. Louis, MO); host or cells: insect cells
T2 sequence (P21397 1-527): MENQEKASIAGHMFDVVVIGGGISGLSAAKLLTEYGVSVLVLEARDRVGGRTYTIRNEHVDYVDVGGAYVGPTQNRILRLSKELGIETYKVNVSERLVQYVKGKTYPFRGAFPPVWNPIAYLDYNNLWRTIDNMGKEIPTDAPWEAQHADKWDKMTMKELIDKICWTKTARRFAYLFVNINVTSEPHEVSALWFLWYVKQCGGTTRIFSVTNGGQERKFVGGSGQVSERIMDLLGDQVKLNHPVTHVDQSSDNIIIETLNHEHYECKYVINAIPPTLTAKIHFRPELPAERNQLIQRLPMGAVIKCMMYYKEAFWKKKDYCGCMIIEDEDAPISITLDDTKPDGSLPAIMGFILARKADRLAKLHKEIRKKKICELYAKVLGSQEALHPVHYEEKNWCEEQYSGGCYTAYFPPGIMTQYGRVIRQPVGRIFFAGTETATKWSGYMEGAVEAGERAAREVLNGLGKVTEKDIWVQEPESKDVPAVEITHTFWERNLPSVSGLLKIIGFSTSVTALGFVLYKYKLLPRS
Protocol: as §1
It is known that non-selective (MAO-A/B combined) inhibitors lead to several problems when taken concomitantly with tyramine-containing foods (such as cheese) since the drug's inhibition of MAO-A causes a dangerous elevation of serum tyramine levels, which can cause hypertensive symptoms. […] To calculate the selectivity index (SI: the selectivity for the MAO-B isoform given as the ratio of IC50 (MAO-A)/IC50 (MAO-B)), IC50 values of both compounds have been identified and found to be more than 100 µM. Consequently, the selectivity indices were calculated as illustrated in Table 2.

[5] = target: T3, hMAO-B enzyme (Homo sapiens, UniProt P27338); assay: Kinetic study of MAO-B inhibition mode (Michaelis-Menten, Lineweaver-Burk); type: biochemical
T3 construct: purchased Sigma-Aldrich (St. Louis, MO); host or cells: insect cells
T3 sequence (P27338 1-520): T1 sequence (P27338 1-520)
Protocol: The type of MAO-B inhibition of compound 4e was determined by the Michaelis–Menten kinetic study. The catalytic rates of hMAO-B enzyme in the absence or in the presence of three different concentrations (10, 30, and 100 nM) of compound 4e were measured at seven different concentrations of the benzylamine (0.065, 0.125, 0.25, 0.5, 1, 2, and 4 mM). The corresponding progression curves and the Lineweaver–Burk plots were generated using GraphPad Prism 7 (La Jolla, CA). The maximal velocity (Vmax), the Michaelis constant (Km), and the inhibition constant (Ki) were calculated using SigmaPlot® 13.0 (Palo Alto, CA).
Detailed substrate-dependent kinetic experiments were carried out to examine the mode of MAO-B inhibition of compound 4e. The initial rates of MAO-B inhibition in the absence and presence of 4e were measured at various concentrations of benzylamine, a selective substrate for MAO-B, and both Michaelis–Menten and the Lineweaver–Burk plots are depicted in Figure 4. The Lineweaver–Burk plots for three different concentration of 4e were linear and intersected at the y-axis.

[6] = single dose of 10 µM of compound

| inhibition at 10 µM [1, 6] [%] | melting point [°C] | SMILES | further results |
| --- | --- | --- | --- |
| 49.7 ± 0.68 | 172.5 to 174 | Cn1ccc2cc(NC(=O)c3cnccn3)ccc21 [4k, N-(1-methyl-1H-indol-5-yl)pyrazine-2-carboxamide] |  |
| 11.6 | 164.2 to 164.9 | Cn1ccc2cc(NC(=O)c3cccnc3)ccc21 [4l, N-(1-methyl-1H-indol-5-yl)nicotinamide] |  |
| 1.83 ± 0.75 | 141.8 to 143 | O=C(Nc1ccc2c(ccn2Cc2ccccn2)c1)c1ccnnc1 [4g, N-(1-(pyridin-2-ylmethyl)-1H-indol-5-yl)pyridazine-4-carboxamide] |  |
| 30.29 ± 0.24 | 212.9 to 214.2 | O=C(Nc1ccc2c(ccn2C(=O)c2cccc(F)c2)c1)c1cccnc1 [4f, N-(1-(3-fluorobenzoyl)-1H-indol-5-yl)nicotinamide] |  |
| 19.1 ± 0.47 | 196.7 to 196.9 | O=C(Nc1ccc2c(ccn2C(=O)c2cccc(F)c2)c1)c1ccnnc1 [4d, N-(1-(3-fluorobenzoyl)-1H-indol-5-yl)pyridazine-4-carboxamide] |  |
| 9.52 ± 0.61 | 181.1 to 182 | Cn1ccc2cc(NC(=O)c3ccnnc3)ccc21 [4j, N-(1-methyl-1H-indol-5-yl)pyridazine-4-carboxamide] |  |
| 1.81 ± 0.85 | 142.9 to 144.3 | O=C(Nc1ccc2c(ccn2Cc2ccccn2)c1)c1cccnc1 [4i, N-(1-(pyridin-2-ylmethyl)-1H-indol-5-yl)nicotinamide] |  |
| 2.38 ± 0.66 | 152 to 152.9 | O=C(Nc1ccc2c(ccn2Cc2ccccn2)c1)c1cnccn1 [4h, N-(1-(pyridin-2-ylmethyl)-1H-indol-5-yl)pyrazine-2-carboxamide] |  |
| 66.4 ± 0.79 | 221.3 to 222.2 | O=C(Nc1ccc2c(ccn2C(=O)c2cccc(F)c2)c1)c1cnccn1 [4e, N-(1-(3-fluorobenzoyl)-1H-indol-5-yl)pyrazine-2-carboxamide] | IC50 [1]: 0.78 µM; SI (selectivity index), IC50 (MAO-A)/IC50 (MAO-B) [1]: >120; IC50 [4]: > 100 µM; inhibition at 100 µM [4]: 4.76 ± 0.59%; Mode of MAO-B inhibition ([5]; Lineweaver-Burk plots intersected at the y-axis): competitive; also recorded: reversible; Ki ([5]; substrate benzylamine, 10, 30, 100 nM of 4e, read-out: Inhibition constant (Ki) MAO-B): 0.0945 µM |

The remaining lines, values behind:

| SMILES | inhibition at 10 µM [1, 6] [%] | melting point [°C] | further results |
| --- | --- | --- | --- |
| O=C(Nc1ccc2c(ccn2Cc2ccc(F)cc2)c1)c1cccnc1 [4c, N-(1-(4-fluorobenzyl)-1H-indol-5-yl)nicotinamide] | 11.2 ± 0.24 | 200 to 200.4 |  |
| O=C(Nc1ccc2[nH]ncc2c1)c1c(F)cccc1Cl [VII] |  |  | IC50 [2]: 3.3 µM; IC50 [3]: > 10 µM |
| C#CCN[C@@H]1CCc2ccccc21 [rasagiline] |  |  | SI (selectivity index) for MAO-B ([2]; calculated SI): > 50 |
| Cn1cc(C(=O)Nc2ccc3[nH]ncc3c2)ccc1=O [V] |  |  | Activity over human MAO-B (in words) [2]: totally inactive; IC50 [2]: > 10 µM; IC50 [3]: > 10 µM |
| O=C(Nc1ccc2[nH]ncc2c1)c1cccc(Cl)c1Cl [VI] |  |  | IC50 [2]: 2.59 µM; IC50 [3]: > 10 µM |
| O=C(Nc1ccc2c(ccn2Cc2ccc(F)cc2)c1)c1ccnnc1 [4a, N-(1-(4-fluorobenzyl)-1H-indol-5-yl)pyridazine-4-carboxamide] | 13.2 ± 3.32 | 212.6 to 213.1 |  |
| O=C(Nc1ccc2c(ccn2Cc2ccc(F)cc2)c1)c1cnccn1 [4b, N-(1-(4-fluorobenzyl)-1H-indol-5-yl)pyrazine-2-carboxamide] |  |  | IC50 [1]: 1.65 µM; inhibition at 10 µM [1]: 88.49 ± 0.13%; SI (selectivity index), IC50 (MAO-A)/IC50 (MAO-B) [1]: >60; IC50 [4]: > 100 µM; inhibition at 100 µM [4]: 12.9 ± 1.09% |
